From patent publication US20250092360A1, “METHODS AND COMPOSITIONS FOR GENERATING SOMATOSTATIN+ INTERNEURONS FROM HUMAN FOREBRAIN NEURAL PROGENITOR CELLS” (Trailhead Biosystems Inc., priority 2023, published 2025)
Where “and” joins values, the source holds several entries; their conditions need not be identical. Equal entries are not always repeated. Entries after “also recorded” stand apart in the source; their conditions may differ.

B1: GDNF: Glial cell line-derived neurotrophic factor; can activate the GDNF pathway (protein, UniProt P39905 78-211, looked up)
Glial cell line-derived …: SPDKQMAVLPRRERNRQAAAANPENSRGKGRRGQRGKNRGCVLTAIHLNVTDLGLGYETKEELIFRYCSGSCDAAETTYDKILKNLSRNRRLVSDKVGQACCRPIAFDDDLSFLDDNLVYHILRKHSAKRCGCI

What was measured:
[1] = test system: medial ganglionic eminence (MGE)-derived neural progenitors; assay: Factor criticality analysis, stage 4 recipe; type: cell-based, human; details: FIG. 27, in words
Procedure: To assess the impact of elimination of each validated factor, dynamic profile analysis was again used to compare the expression levels of genes of interest in the absence of each finalized factor while the others were present in the media.
In the stage 4 recipe, each of the five finalized factors was removed while the other four factors remained present in the media and the expression level of forebrain genes was assessed compared to the presence of all 6 factors. SOX6 expression was reported to determine the cortical interneuron-precursors cell fate (see e.g., Azim et al. (2009) Nature Neurosci. 12:1238-1247; Batista-Brito et al. (2009) Neuron 63:466-481). Therefore, optimization of SOX6 expression was focused on at this stage.

[2] = test system: medial ganglionic eminence (MGE)-derived neural progenitors; assay: HD-DoE stage 4, 12-factor experiment: SOX6 expression; type: cell-based, human; details: for impact on expression of SOX6: dynamic profile, in words; for factor contribution, expression of SOX6: positive impact, model optimized for maximal SOX6 at 1442
From the text: These effectors are small chemical compounds or proteins. They are commonly used during the differentiation of stem cells to specific cell linage. The choice of the effectors was based on the current literature on forebrain neural induction and differentiation of neural progenitor cells to mature neurons.
To evaluate the effectors on SST differentiation, experiments with 8 or 12 factors were designed to assess the responses of cells to 48 or more combinations of effectors in a range of concentrations. To analyze the models, we focused on expression of genes involved in development and patterning of the forebrain interneurons maturation including LHX6 (Liodis et al. (2007) J. Neurosci. 27:3078-3089; Yuan et al. (2018) Elife 7: e37382), SOX6 (Azim et al. (2009) Nature Neurosci. 12:1238-1247; Batista-Brito et al. (2009) Neuron 63:466-481), DLX5 (de Lombares et al. (2019) Aging (Albany NY) 11:6638; Wang et al. (2010) J. Neurosci. 30:5334-5345) and ASCL1 (Barretto et al. (2020) J. Neurosci. Meth. 334:108548; Shi et al. (2016) J. Biol. Chem. 291:13560-13570). At later stages we focused on interneuron maturation genes including somatostatin and absence of Parvalbumin (Horn and Nicoll (2018) Proc. Natl. Acad. Sci. 115:589-594). The impacts of each effector on gene expression level are defined by a parameter called factor contribution that is calculated for each effector during the modeling.
To identify the recipe for differentiation at stage 4, at least 48 different combinations of effectors were robotically prepared by the Design-of-Experiments compression through D-optimality. The effector combinations were prepared in a basal media and were subsequently added to the cells, which were then allowed to differentiate. Three days later, RNA extraction was performed, and gene expression levels were examined using quantitative PCR analysis. The data was normalized and modeled using partial least squares regression analysis to the effector design, resulting in the generation of gene-specific models, which after model tuning for maximal predictive power, provided explanation of the effectors ability to control the expression of individual genes, combinatorically, and individually. Solutions within the tested space could then be explored to address desirability.
IGF-1 activates the IGF-1 pathway, promotes neuron axonal growth, and establishes the synapse of interneurons. GDNF is the […] and can activate the GDNF pathway. MK2206 is an AKT inhibitor and can inhibit cell proliferation and promote neuronal maturation. PD173074 and BLU-554 are FGFR inhibitors. The FGF pathway is required for the maintenance of neural progenitor cells. Inhibition of the FGFR pathway promotes neural maturation. GSI-XX is a notch pathway inhibitor. Notch pathway inhibits neural progenitor cell differentiation. Inhibition of the Notch pathway promotes neural differentiation.
To find the set of factors that have the potential to optimize SOX6 in this experiment, a new assessment was done through dynamic profile analysis with focus on maximal expression of SOX6.

[3] = test system: stage 2 neural stem cells; assay: Factor criticality analysis, stage 3 recipe; type: cell-based, human; details: other five stage 3 factors present
Procedure: (§1) To assess the impact of the elimination of each validated factor, dynamic profile analysis was used and compared the expression level of genes of interest in absence of each finalized factor while others are present.
In the stage 3 recipe, each of the six finalized factors were removed while the other five factors remained present and the expression levels of ASCL1, DLX1 and LHX6 were assessed compared to the presence of all six factors. […] As expected, in the absence of IGF-1, the value of DLX1 increases to 410, however, ASCL1 and LHX6 decreased to 1390 and 220, respectively.

[4] = test system: forebrain-committed neural stem cells; assay: HD-DoE stage 2, 12-factor experiment: NKX2-1 expression; type: cell-based, human; details: model / dynamic profile, in words
Procedure: To further guide the differentiation of forebrain-committed neural stem cells to ventral forebrain neural stem cells at stage 2, a HD-DoE experiment was performed for 3 days after termination of stage 1 treatment. […] This 12-factor experiment included LDN193189, BMP7, PD0325901, MK2206, A8301, XAV939, CHIR99021, Purmorphamine, SANT-1, AGN193109, TTNPB and GSI-XX. […]

[5] = test system: stage 2 neural stem cells; assay: HD-DoE stage 3 experiment: ASCL1, LHX6, DLX1 expression; type: cell-based, human
Procedure: To further guide the cells to medial ganglionic eminence progenitor fate, an additional HD-DoE experiment was performed for 3 days on cells that were treated with stage 1 and stage 2 media for total of 6 days prior to start of the experiment. This experiment included 13 effectors, LDN193189, A8301, GNF5837, AZD3147, GSI-XX, Takinib, PD0325901, PD173074, BLU9931, IGF-1, MHY1485, Purmorphamine and Prostratin. In this model, we focused on maximum expression of genes expressed in neuronal progenitor cells in medial ganglionic eminence (MGE) region including ASCL1, LHX6 and DLX1 (Silberberg et al. (2016) Neuron 92:59-74). When the model was optimized for maximum expression of ASCL1 at 1700, A8301, GSI-XX, Purmorphamine and Takinib, which is an inhibitor of TAK1 pathway, had the highest factor contributions, 18.1, 14.1, 12.7 and 10.1 respectively. […] MHY 1485 also had positive contribution however the factor was below 2 (FIG. 9).
Therefore, six effectors including A8301, GSI-XX, Takinib, GNF5837, IGF-1 and Purmorphamine were finalized as ingredients of stage 3 differentiation media. A representative recipe for Stage 3 differentiation is summarized below in Table 3.

[6] = test system: forebrain-committed neural progenitor cells; assay: HD-DoE stage 5, 8-factor experiment (JQ1, Indolactam-V ...): Somatostatin expression; type: cell-based, human
Procedure: To further guide the differentiation of forebrain-committed neural progenitor cells to somatostatin interneuron cells at stage 5, HD-DoE experiments were performed for 3 days after termination of stage 4 treatment. At this time, we focused on maximum expression of SST that was expressed in Somatostatin (+) interneurons and minimum expression of Parvalbumin that is another type of interneurons. This 8-factor experiment included JQ1, (−)-Indolactam-V, Oleic acid, BDNF, IGF-1, 2-phospho-L-Ascorbic acid, Albumax, MK2206. When the model was maximized for expression of Somatostatin, six effectors were identified that could increase its expression levels, including (−)-Indolactam-V, Oleic acid, BDNF, 2-phospho-L-ascorbic acid, Albumax, and MK2206, as shown in FIG. 21. Using dynamic profile analysis, the results of which are shown in FIG. 22, the model was modified to achieve the maximum expression level of Somatostatin and therefore (−)-Indolactam-V, BDNF, and 2-phospho-L-ascorbic acid were included while JQ-1, Oleic acid, Albumax and MK2206 were excluded. Considering the model at different optimization settings for maximum differentiation of cells toward ventral forebrain, the recipe for stage 5 of differentiation included (−)-Indolactam-V, BDNF, IGF-1, and 2-phospho-L-ascorbic acid from this HD-Doe experiment.

[7] = test system: human pluripotent stem cells; assay: HD-DoE stage 1, additional experiment: FEZF2 expression; type: cell-based
Procedure: To identify the recipe for stage 1 of differentiation, 96 different combinations of effectors generated using Design-of-Experiments compression through D-optimality were robotically prepared. The effector combinations were prepared in a basal media and were subsequently added to the cells, which were then allowed to differentiate. Three days later RNA extraction was performed, and gene expression was obtained using quantitative PCR analysis. The data were normalized and modeled using partial least squares regression analysis to the effector design, resulting in the generation of gene-specific models, which after model tuning for maximal Q2 predictive power, provided explanation of the effectors ability to control the expression of individual genes, combinatorically, and individually. Solutions within the tested space could then be explored to address desirability. To further enhance the conditions for forebrain differentiation from pluripotency, an additional HD-DoE experiment was performed. Additional gene regulatory models were obtained that were used for preparation of the differentiation protocol. The factors in this experiment included LDN193189, PD173074, BLU9931, Purmorphamine, SC79, MK2206, ZM336372, PD0325901, CHIR99021, XAV939, UCLA-GP130, Tofacitinib and GO6983. […] Dynamic profile analysis was also used to assess the interaction between the effectors.

[8] = test system: human pluripotent stem cells; assay: Factor criticality analysis, stage 1 recipe (dynamic profile analysis); type: cell-based; details: 3500 with all factors; FIG. 12
From the text: as §1, with “present. […] When Purmorphamine was removed, levels of FEZF2 and SIX3 were decreased to 1000 and below 3000, while levels of OTX2 increased to 6500.” for “present.”

[9] = test system: forebrain-committed neural progenitor cells; assay: HD-DoE stage 5, 8-factor experiment (GDNF, BDNF, NT-3 ...): Somatostatin expression; type: cell-based, human; details: FIG. 24 dynamic profile, in words
Procedure: To investigate the effects of other factors on differentiation of forebrain-committed neural progenitor cells to Somatostatin interneuron cells, an additional HD-DoE experiment was performed for 3 days on cells that were treated with stage 1 to stage 4 medium for a total of 12 days prior to the new experiment. This experiment, the results of which are shown in FIG. 23, included eight effectors, GDNF, BDNF, NT-3, ß-NGF, Linoleic acid, 5-Cholesten-3β, LIF and TGF-β3. In this model, we focused on maximum expression of Somatostatin gene expressed in Somatostatin (+) interneurons (Urban-Ciecko and Barth (2016) Nature Reviews Neurosci. 17:401-409). When the model was optimized for maximum expression of Somatostatin, BDNF, NT-3, beta-NGF and Linoleic acid had the highest factor contributions, 25.7, 2, 19.9, 23.5, respectively.
Therefore, the latter were excluded in the recipe.

Molecule | effect on PVALB expression [1] | effect on SOX6 expression [1] | effect on Somatostatin expression [1] | impact on expression of SOX6 [2] | factor contribution, expression of SOX6 [2] | expression level of DLX1 when the factor is removed ([3]; 220 with all six factors) | expression level of LHX6 when the factor is removed ([3]; 240 with all six factors) | expression level of ASCL1 when the factor is removed ([3]; 1650 with all six factors) | impact on expression of NKX2-1 [4] | impact on expression of ASCL1 ([5]; dynamic profile, in words) | impact on expression of LHX6 ([5]; dynamic profile, in words) | factor contribution, expression of ASCL1 ([5]; positive, model optimized for maximum ASCL1 at 1700) | impact on expression of Somatostatin ([6]; FIG. 21/22, in words) | factor contribution, expression of Somatostatin ([6]; positive, 8-factor experiment of FIG. 21) | impact on expression of FEZF2 ([7]; dynamic profile, in words) | factor contribution, expression of FEZF2 ([7]; positive impact, additional stage 1 experiment optimized for FEZF2) | expression level of FEZF2 when the factor is removed [8] | impact on expression of Somatostatin [9]
C[C@H](NC(=O)Cc1cc(F)cc(F)c1)C(=O)N[C@@H]1C(=O)N(C)c2ccccc2-c2ccccc21 [GSI-XX] | minimal effect | increase | contribute | positive impact | 3.6 | 50 | 140 | 1200 | increase | Positive impact | Positive impact | 14.1 and 14 | – | – | – | – | – | –
NC1(c2ccc(-c3nc4ccn5c(=O)[nH]nc5c4cc3-c3ccccc3)cc2)CCC1 [MK2206] | decrease | increase | – | positive impact | 7.2 | – | – | – | increase | – | – | – | increase; also recorded: positive impact | 4.2 | positive impact | 11 and 12.2 | 2700 | –
B1 | – | increase | – | positive impact | 21 | – | – | – | – | – | – | – | – | – | – | – | – | negative impact
